Where two headings read alike, the source gives them in different places.
Key:
Test in all cases: Kinase panel
Assay type in all cases: biochemical
[1] = target: T1, ARK5(h) (Homo sapiens, UniProt O60285)
T1 construct: purchased Millipore KinaseProfiler
T1 sequence (O60285 1-661): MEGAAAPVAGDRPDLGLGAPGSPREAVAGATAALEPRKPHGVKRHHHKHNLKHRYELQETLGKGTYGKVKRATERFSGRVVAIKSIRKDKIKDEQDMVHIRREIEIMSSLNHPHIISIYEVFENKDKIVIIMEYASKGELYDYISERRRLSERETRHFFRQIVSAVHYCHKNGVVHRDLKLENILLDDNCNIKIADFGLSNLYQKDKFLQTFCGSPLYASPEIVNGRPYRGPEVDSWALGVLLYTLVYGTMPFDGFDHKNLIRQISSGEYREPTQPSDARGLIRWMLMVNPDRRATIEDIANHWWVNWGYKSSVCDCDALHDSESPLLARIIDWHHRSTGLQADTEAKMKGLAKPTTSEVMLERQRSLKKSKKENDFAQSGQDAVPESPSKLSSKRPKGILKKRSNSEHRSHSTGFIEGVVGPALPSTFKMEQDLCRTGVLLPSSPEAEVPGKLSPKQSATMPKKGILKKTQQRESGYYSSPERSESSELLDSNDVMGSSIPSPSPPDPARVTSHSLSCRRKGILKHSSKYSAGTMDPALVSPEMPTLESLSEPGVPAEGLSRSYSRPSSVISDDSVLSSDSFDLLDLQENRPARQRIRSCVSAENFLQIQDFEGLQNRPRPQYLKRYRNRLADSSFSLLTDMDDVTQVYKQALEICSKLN

[2] = target: T2, GRK5(h) (Homo sapiens, UniProt P34947)
T2 construct: purchased Millipore KinaseProfiler

[3] = target: T3, NEK11(h) (Homo sapiens, UniProt Q8NG66)
T3 construct: purchased Millipore KinaseProfiler
T3 sequence (Q8NG66 1-645): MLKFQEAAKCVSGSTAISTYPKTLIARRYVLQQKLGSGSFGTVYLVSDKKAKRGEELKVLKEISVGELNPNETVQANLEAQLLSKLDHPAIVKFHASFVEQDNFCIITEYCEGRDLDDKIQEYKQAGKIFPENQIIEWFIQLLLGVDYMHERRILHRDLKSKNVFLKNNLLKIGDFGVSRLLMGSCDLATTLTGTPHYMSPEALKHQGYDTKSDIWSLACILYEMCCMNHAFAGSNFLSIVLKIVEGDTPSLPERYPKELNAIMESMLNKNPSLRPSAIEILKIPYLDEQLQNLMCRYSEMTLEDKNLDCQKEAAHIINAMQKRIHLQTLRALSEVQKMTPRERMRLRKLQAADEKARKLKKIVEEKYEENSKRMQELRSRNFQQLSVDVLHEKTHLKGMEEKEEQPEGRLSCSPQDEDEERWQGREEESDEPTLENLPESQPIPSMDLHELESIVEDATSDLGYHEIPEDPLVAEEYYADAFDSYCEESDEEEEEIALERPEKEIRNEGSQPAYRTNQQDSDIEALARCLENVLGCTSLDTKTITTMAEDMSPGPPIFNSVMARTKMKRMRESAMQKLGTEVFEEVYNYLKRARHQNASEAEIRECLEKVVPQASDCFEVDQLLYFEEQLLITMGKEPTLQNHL

[4] = target: T4, PKCζ(h) (Homo sapiens, UniProt Q05513)
T4 construct: purchased Millipore KinaseProfiler
T4 sequence (Q05513 1-592): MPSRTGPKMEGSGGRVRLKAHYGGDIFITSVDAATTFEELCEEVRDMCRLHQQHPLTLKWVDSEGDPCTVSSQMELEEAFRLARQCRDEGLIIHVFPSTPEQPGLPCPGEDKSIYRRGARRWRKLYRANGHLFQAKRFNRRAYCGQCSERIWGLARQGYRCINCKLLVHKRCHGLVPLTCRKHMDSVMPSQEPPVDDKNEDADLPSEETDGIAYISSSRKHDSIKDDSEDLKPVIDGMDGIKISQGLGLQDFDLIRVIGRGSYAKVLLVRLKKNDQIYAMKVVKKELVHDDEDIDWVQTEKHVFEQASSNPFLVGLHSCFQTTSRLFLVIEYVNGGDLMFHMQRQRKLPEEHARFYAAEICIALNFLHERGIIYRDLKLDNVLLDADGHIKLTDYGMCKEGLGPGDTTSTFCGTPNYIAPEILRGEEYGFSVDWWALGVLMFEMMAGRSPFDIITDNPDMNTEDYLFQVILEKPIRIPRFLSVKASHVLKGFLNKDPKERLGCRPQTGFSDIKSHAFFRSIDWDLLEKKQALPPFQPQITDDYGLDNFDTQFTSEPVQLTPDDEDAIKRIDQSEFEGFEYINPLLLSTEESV

[5] = target: T5, Rse(h) (Homo sapiens, UniProt Q06418)
T5 construct: purchased Millipore KinaseProfiler
T5 sequence (Q06418 41-890): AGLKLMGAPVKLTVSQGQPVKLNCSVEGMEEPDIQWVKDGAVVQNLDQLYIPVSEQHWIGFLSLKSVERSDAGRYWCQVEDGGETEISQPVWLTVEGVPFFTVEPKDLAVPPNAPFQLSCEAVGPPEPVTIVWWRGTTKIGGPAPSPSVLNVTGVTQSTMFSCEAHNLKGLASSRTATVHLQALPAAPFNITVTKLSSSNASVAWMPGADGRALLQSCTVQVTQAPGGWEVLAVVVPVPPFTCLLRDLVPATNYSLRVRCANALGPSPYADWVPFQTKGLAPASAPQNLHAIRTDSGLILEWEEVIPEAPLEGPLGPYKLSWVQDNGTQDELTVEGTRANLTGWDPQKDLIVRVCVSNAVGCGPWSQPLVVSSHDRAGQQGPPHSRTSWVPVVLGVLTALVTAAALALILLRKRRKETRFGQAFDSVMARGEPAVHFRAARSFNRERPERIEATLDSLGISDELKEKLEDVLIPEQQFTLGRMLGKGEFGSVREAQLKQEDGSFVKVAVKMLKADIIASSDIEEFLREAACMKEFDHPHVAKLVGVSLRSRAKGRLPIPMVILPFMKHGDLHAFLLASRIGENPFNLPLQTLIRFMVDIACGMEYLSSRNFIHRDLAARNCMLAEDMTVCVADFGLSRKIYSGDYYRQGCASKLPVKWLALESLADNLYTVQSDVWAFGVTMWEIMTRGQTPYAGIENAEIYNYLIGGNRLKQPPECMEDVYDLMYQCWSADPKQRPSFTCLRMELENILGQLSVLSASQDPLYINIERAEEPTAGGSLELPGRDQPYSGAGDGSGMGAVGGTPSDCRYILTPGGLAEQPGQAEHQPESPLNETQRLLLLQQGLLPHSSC

[6] = target: T6, ZIPK(h) (Homo sapiens, UniProt O43293)
T6 construct: purchased Millipore KinaseProfiler
T6 sequence (O43293 whole entry): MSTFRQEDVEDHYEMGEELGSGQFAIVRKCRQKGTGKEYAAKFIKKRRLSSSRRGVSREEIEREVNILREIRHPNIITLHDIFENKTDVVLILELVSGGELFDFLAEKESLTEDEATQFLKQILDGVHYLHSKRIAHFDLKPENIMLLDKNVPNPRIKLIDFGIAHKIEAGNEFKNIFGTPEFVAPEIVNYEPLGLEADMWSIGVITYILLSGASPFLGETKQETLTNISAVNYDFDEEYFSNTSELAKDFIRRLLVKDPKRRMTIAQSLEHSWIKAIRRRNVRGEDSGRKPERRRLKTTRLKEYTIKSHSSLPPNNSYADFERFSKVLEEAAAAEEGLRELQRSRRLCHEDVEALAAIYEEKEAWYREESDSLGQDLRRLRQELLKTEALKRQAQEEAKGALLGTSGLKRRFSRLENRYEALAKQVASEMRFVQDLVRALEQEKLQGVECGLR

T2 sequence (P34947 whole entry): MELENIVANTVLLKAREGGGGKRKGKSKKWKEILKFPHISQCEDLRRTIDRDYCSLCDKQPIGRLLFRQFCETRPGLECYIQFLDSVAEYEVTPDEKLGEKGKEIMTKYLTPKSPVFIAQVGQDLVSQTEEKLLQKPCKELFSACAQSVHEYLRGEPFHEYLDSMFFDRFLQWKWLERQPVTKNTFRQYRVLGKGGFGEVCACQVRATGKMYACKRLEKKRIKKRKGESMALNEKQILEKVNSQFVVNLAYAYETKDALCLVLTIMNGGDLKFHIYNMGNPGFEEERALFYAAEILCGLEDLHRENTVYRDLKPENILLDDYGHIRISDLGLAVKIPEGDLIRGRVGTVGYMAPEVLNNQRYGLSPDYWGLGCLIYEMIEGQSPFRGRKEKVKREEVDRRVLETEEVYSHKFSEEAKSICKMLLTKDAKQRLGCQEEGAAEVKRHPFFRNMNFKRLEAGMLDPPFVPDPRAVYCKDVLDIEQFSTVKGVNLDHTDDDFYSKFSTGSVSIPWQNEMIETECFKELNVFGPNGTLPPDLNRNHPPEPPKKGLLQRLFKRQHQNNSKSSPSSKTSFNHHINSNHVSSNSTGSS

`Cn1ncc(Cl)c1-c1cc(C(=O)N[C@H](CN)Cc2cccc(F)c2)sc1Cl` [GSK2110183] gave an inhibition at 0.5 µM [1] of -6%, an inhibition at 10 µM [1] of 9% and an inhibition at 0.5 µM [2] of -8%. For the same compound, the inhibition at 10 µM [2] was -1%, the inhibition at 0.5 µM [3] was -13% and the inhibition at 10 µM [3] was -11%. It also gave an inhibition at 0.5 µM [4] of -4%, an inhibition at 10 µM [4] of 37% and an inhibition at 0.5 µM [5] of 6%. It also gave an inhibition at 10 µM [5] of 51%, an inhibition at 0.5 µM [6] of 0% and an inhibition at 10 µM [6] of 62%.
Compound `Cn1ncc(Cl)c1-c1cc(C(=O)N[C@H](CN)Cc2ccc(F)c(F)c2)oc1Cl` [GSK2141795] has an inhibition at 0.5 µM ([1]; 0.5 µM, read-out: % Inhibition) of -5%, an inhibition at 10 µM ([1]; 10 µM, read-out: % Inhibition) of 18% and an inhibition at 0.5 µM ([2]; 0.5 µM, read-out: % Inhibition) of 4%. The inhibition at 10 µM ([2]; 10 µM, read-out: % Inhibition) was 43%, the inhibition at 0.5 µM ([3]; 0.5 µM, read-out: % Inhibition) was -11% and the inhibition at 10 µM ([3]; 10 µM, read-out: % Inhibition) was -2%. It also gave an inhibition at 0.5 µM ([4]; 0.5 µM, read-out: % Inhibition) of 5%, an inhibition at 10 µM ([4]; 10 µM, read-out: % Inhibition) of 74% and an inhibition at 0.5 µM ([5]; 0.5 µM, read-out: % Inhibition) of 2%. For the same compound, the inhibition at 10 µM ([5]; 10 µM, read-out: % Inhibition) was 33%, the inhibition at 0.5 µM ([6]; 0.5 µM, read-out: % Inhibition) was 19% and the inhibition at 10 µM ([6]; 10 µM, read-out: % Inhibition) was 78%.

Reference: article PMC4076210, “Discovery of Novel AKT Inhibitors with Enhanced Anti-Tumor Effects in Combination with the MEK Inhibitor” (PLoS ONE, 2014)
